Tests used:
[1] = test system: BDNF; assay: QRT-PCR of hippocampal tissue from kindled rats, BDNF; type: in vivo, rat
Source text: (§1) Values plotted are BDNF or TrkB expression over Actin using rat hippocampal cDNA from an untreated rat for a standard curve. Specifically, mRNA was extracted from hippocampus tissue from rats treated with 2-DG or untreated control rats subjected to kindling stimulation to mimic epilepsy. […] The levels of actin mRNA were not affected by 2-DG treatment. Importantly, the differences in expression of BDNF or TrkB in the absence or presence of 2DG were present after 5 ADs in association with a large difference in AD threshold between 2DG-treated and control rats (FIG. 3 lanes 5 versus 6 and 7 versus 8).

[2] = test system: actin; assay: QRT-PCR of hippocampal tissue from kindled rats, actin; type: in vivo, rat; conditions: hippocampus, 2-DG treatment versus control
Source text: as §1

[3] = test system: hippocampal gene expression; assay: microarray hybridization of rat hippocampus mRNA (Affymetrix Rat Array); type: in vivo; conditions: of 35,000 genes comprising the microarray
Protocol: In view of the results with BDNF and TrkB, hippocampal gene expression changes in rats treated with and without 2-DG were assessed by hybridization using microarrays (Affymetrix Rat Array (35,000 genes represented), Affymetrix, Santa Clara, Calif.). Hybridizations were performed according to the manufacturer's instructions using mRNA isolated from rat hippocampus from rats following dietary restriction or treatment with drug (2-DG). […] Genes of interest in disease states detected in these experiments include but are not limited to snail (NM_005985), MDR3/MRP3 (GenBank Accession No. M23234), MTA1 (NM_004689), DCC (NM_005215), Netrin (U75586), and β-catenin (X87838)(metastasis); BDNF (NM_170731) and TrkB (NM_006180) (neurological disorders) and atrial natriuretic peptide (ANP; NM_000907)(cardiac hypertrophy/myocardial infarction).

[4] = test system: actin (not an NRSF target); assay: QRT-PCR of actin in JTC-19 cells; type: cell-based, rat; conditions: 1 mM 2-DG for 24 hrs
Source text: FIG. 5 are graphs showing the results of quantitative reverse-transcriptase-PCR experiments, wherein NaV1.2 is sodium type II (NaV1.2); BDNF is Brain Derived Neurotrophic Factor (BDNF) and CHRM4 is muscarinic acetylcholine receptor type 4 (CHRM4), all genes repressed by NRSE/NRSF, and actin (not an NRSF target).
Firefly luciferase measurements were normalized to co-transfected pRL-TK and expressed as fold repression (gal4 DBD/gal4-NRSF). Values are the average of at least three experiments performed in triplicate. Error bars indicate standard errors. […] In these experiments, cells were grown in the presence or absence of 1 mM 2-DG for 24 hrs, harvested and RNA subjected to QRT-PCR with primers to the NRSF target genes Sodium Type II (NaV1.2), Brain Derived Neurotrophic Factor (BDNF) and Muscarinic Acetylcholine Receptor Type 4 (CHRM4) or actin (not an NRSF target). Rat hippocampal cDNA was used to generate a standard curve and values plotted are microliter equivalents of hippocampal cDNA.

[5] = test system: BDNF NRSE; assay: ChIP on hippocampi of rats administered 2-DG or saline, BDNF NRSE; type: in vivo, rat
Source text: FIG. 10D is a graph showing the results of CHiP assays of ˜20 kB surrounding the NRSE element in the BDNF gene. The data is plotted as the quantity of DNA specifically precipitated (pg).
FIG. 10E is a graph showing the results of CHiP assays wherein chromatin precipitated with anti-H3K9-dimethyl or sham antibody and primers flanking the BDNF NRSE. The data is plotted as the quantity of DNA specifically precipitated (pg).
FIG. 10F is a graph showing the results of CHiP assays wherein chromatin was precipitated with anti-NRSF or sham antibody and primers flanking the BDNF or actin promoter. The data is plotted as the quantity of DNA specifically precipitated (pg).
(§2) FIG. 10I is a graph of CHIP assays performed on hippocampi from rats administered 2-DG or saline for 2 weeks and using a cocktail of anti-CtBP1 and anti-CtBP2 antibody or sham antibody and primers flanking the BDNF NRSE or actin promoter. Data is plotted as quantity of DNA specifically precipitated in picograms.
To determine whether 2-DG mediated suppression of BDNF levels was associated with a decreased level of histone H3 Lysine^9 acetylation, hippocampii from 2-DG treated or control rats were crosslinked with 1% formaldehyde and subjected to chromatin immunoprecipitation assays (ChIPs), performed as in Roopra et al.(2004, Mol Cell 14: 727-38) with an antibody specific to acetylated H3-K9. The graphs shown in FIGS. 10A through 10C show the results of experiments in which the amount (in ng) of DNA associated with nucleosomes comprising modified or unmodified H3 histone proteins was detected for an endogenous, NRSE/NRSF-regulated gene (CHRM4) in JTC-19 cells grown in the presence of 2-DG or glucose. […] However, the amount of CtBP recruited to CHRM4, the NRSF target gene, increased 5-fold in the presence of 2-DG.
ChIP assays also were performed over 20 Kb spanning the BDNF NRSE to detect deacetylated histone H3K9. In these experiments, hippocampi from rats administered 2-DG or saline for 2 weeks were subjected to CHIP with anti-H3K9-acetyl (obtained from BD-Pharmigen) or sham antibody and primers flanking BDNF NRSE or sequence 2, 5 or 10 Kb up- or downstream from the BDNF NRSE element.
Alternatively, when chromatin from the above experiments was precipitated with anti-NRSF or sham antibody and primers flanking the BDNF NRSE or actin promoter, specific binding was found at the NSRE element and not associated with the actin promoter.
(§3) The above results predicted that CtBP would be present at the BDNF NRSF binding site in rat hippocampi and that occupancy at this site should be augmented in the presence of 2-DG. To test this prediction, ChIP assays were performed using anti-CtBP antibody on chromatin isolated from 2DG-treated rats as above. Hippocampi from rats administered 2-DG or saline for 2 weeks were subjected to ChIP with a cocktail of anti-CtBP1 and anti-CtBP2 antibody or sham antibody and primers flanking the BDNF NRSE or actin promoter. […] CtBP was not detected at the actin promoter without regard to the glycolytic state of the animal, as expected for a gene not under NRSF regulatory control.

[6] = test system: actin promoter; assay: ChIP on hippocampi of rats administered 2-DG or saline, actin promoter; type: in vivo; conditions: rat hippocampi, without regard to the glycolytic state
Source text: as §2, §3

Which “hippocampal BDNF expression compared to control animals” value ([1]; QRT-PCR, expression over actin, FIG. 3 lanes 1 versus 2) does the source give for `O=CC[C@@H](O)[C@H](O)[C@H](O)CO` [2-DG, 2-deoxy-D-glucose] here?
Its value is “significantly reduced”.

What about the “difference in expression of BDNF in absence or presence of 2DG” value ([1]; after 5 ADs) of the same molecule?
Its value is “present”.

What about the “BDNF expression, 2DG-treated versus control rats” value ([1]; rats that experienced 3 Class V seizures) of the same molecule?
The value was “no difference in expression”.

And the “levels of actin mRNA” value [2]?
Its value is “not affected”.

And the “number of genes down-regulated by drug treatment” value [3]?
The value was 349.

And the “number of genes transcriptionally upregulated by drug treatment” value [3]?
Its value is 241.

And the actin levels [4]?
The actin levels was “unaffected”.

What about the “H3K9 methylation status at the BDNF NRSE” value ([5]; anti-H3K9-dimethyl antibody, rat hippocampi) of the same molecule?
Its value is “robust increase”.

And the “NRSF binding to the BDNF NRSE” value ([5]; anti-NRSF antibody, rat hippocampi)?
The value was “not affected”.

And the “associated histone acetylation levels for BDNF DNA” value ([5]; drug treatment, rat hippocampus)?
The value was “lowered”.

And the “CtBP occupancy at the BDNF NRSE” value ([5]; rats administered 2-DG or saline for 2 weeks, anti-CtBP1 and anti-CtBP2 cocktail)?
The value was “significantly increased”.

What about the “H3K9 acetylation at the NRSE element compared to controls” value ([5]; rats administered 2-DG or saline for 2 weeks, only amplicon over 20 Kb to change) of the same molecule?
Its value is “marked reduction”.

And the “CtBP at the actin promoter” value [6]?
Its value is “not detected”.

— patent US7557085B2, “Metabolic-based methods for modulating gene expression” (Wisconsin Alumni Research Foundation, priority 2005, dated 2009)
